# Measured values: patent US20130266557A1, “METHODS FOR TREATMENT OF A SARCOMA USING AN EPIMETABOLIC SHIFTER (COENZYME Q10)” (priority 2009, published 2013)
# Tests used:
# [1] = test system: cancer cell lines (SK-MEL-28, SK-MEL-2, SCC, PaCa2, HEP-G2) and control keratinocytes and melanocytes; assay: Sensitivity and apoptotic response of a cell line panel (Example 1); type: cell-based; conditions: various levels of Coenzyme Q10
# Procedure: In a first set of experiments, changes to cell morphology/physiology were evaluated by examining the sensitivity and apoptotic response of cells to CoQ10. A panel of skin cell lines including a control cell lines (primary culture of keratinocytes and melanocytes) and several skin cancers cell lines (SK-MEL-28, a non-metastatic skin melanoma; SK-MEL-2, a metastatic skin melanoma; or SCC, a squamous cell carcinoma; PaCa2, a pancreatic cancer cell line; or HEP-G2, a liver cancer cell line) were treated with various levels of Coenzyme Q10.
# [2] = cited from earlier work
# NCIES0808 cells = assay: Western blot analysis; type: cell-based, human
# Procedure: Cells were grown and treated with CoQ10 at 50 uM and 100 uM, along with the proper controls. The total cell lysates (as prepared above) were processed and evaluated by Western blot analysis. Proteins from each treatment group were resolved on SDS-PAGE and transferred onto PVDF membranes. They were then hybridized with antibodies.
# Either 5 or 10 μg of protein was assayed per sample by immunoblotting. Proteins were separated on 10-20% Tris-HCl gels or 4-12% Bis-Tris gels, transferred via electrophoresis to PVDF membranes and blocked using a 5% GE/Amersham ECF blocker and TBST solution prior to incubation with primary antibodies. The primary antibodies were incubated overnight at 4 degrees C. in a 5% BSA and TBST solution. Secondary antibodies were incubated for one hour at room temperature. All antibodies were purchased from commercial vendors. Antibodies were used at the manufacturers' recommended dilution, with the control βActin at a dilution of 1:5000. Blots were developed using GE/Amersham ECF reagent, and results were quantified using the Fuji FL-5100 laser scanner and Bio-Rad Quantity One densitometry analysis software. All blots were also probed for and normalized to their respective βActin expression.
# NCIES0808 cells treated for 24 hours with 50 or 100 μM Q10 were subjected to Western blot analysis and were analyzed to identify protein-level changes relative to the control media samples.
# Protein obtained from the treated cells was evaluated by Western blot analysis against an antibody for Angiotensin-converting enzyme (ACE) (FIG. 4A), an antibody for Caspase 3 (FIG. 4B), an antibody for GARS (FIG. 4C), an antibody for Matrix Metalloproteinase 6 (MMP-6) (FIG. 4D) and a series of antibodies for Neurolysin (NLN) (FIGS. 4E-F).
# [3] = Level and form of CoQ10 in mitochondrial enriched preparations; type: cell-based
# Procedure: Experiments were carried out to confirm the entry of CoQ10 into cells and to determine the level and form of CoQ10 present in the cells. In particular, the level of Coenzyme Q10, as well as the form of CoQ10 (i.e., oxidized or reduced), present in the mitochondria was determined by analyzing mitochondrial enriched preparations from cells treated with CoQ10. […] In addition, changes in levels of proteins from mitochondria enriched samples were analyzed by using 2-D gel electrophoresis and protein identification by mass spectrometry characterization.
# [4] = test system: mitochondrial preparation of NICES0808 sample; assay: 2-D gel analysis of mitochondrial preparation; type: cell-based, human; conditions: direction not given
# Procedure: NCIES0808 cells were treated with Q10 separately in larger volumes for isolation of sufficient mitochondria for proteomic analysis. Cells were treated with media, 50 uM Q10 or 100 uM Q10 for 0, 3, 6, 24 and 48 hours in T175 flasks. Two flasks were grown for each condition and cells from the two were pooled during harvesting. After the required treatment time, cells were trypsinized and washed twice in ice cold TBS. Pelleted cells were snap frozen in liquid nitrogen and frozen at −80° C. until mitochondria were isolated. Mitochondria were isolated using manufacturers instructions available with the MitoProfile Mitosciences Isolation Kit for Cultured Cells (Mitosciences Inc, Eugene, Oreg.).
# Before isoelectric focusing (IEF), samples were solubilized in 40 mM Tris, 7 M urea, 2 M thiourea, and 1% C7 zwitterionic detergent, reduced with tributylphosphine, and alkylated with 10 mM acrylamide for 90 min at room temperature. After the sample was run through a 10-kDa cutoff Amicon Ultra device with at least 3 volumes of the resuspension buffer, consisting of 7 M urea, 2 M thiourea, and 2% CHAPS to reduce the conductivity of the sample. One hundred micrograms of protein were subjected to IEF on 11-cm pH 3 to 10, pH 4 to 7 or pH 6 to 11 immobilized pH gradient strips (GE, Amersham, USA) to 100,000 volts hour. After IEF, immobilized pH gradient strips were equilibrated in 6 M urea, 2% SDS, 50 mM Tris-acetate buffer, pH 7.0, and 0.01% bromphenol blue and subjected to SDS-polyacrylamide gel electrophoresis on 8 to 16% Tris-HCl Precast Gel, 1 mm (Bio-Rad, USA). The gels were run in duplicate. They were fixed, stained in SYPRO Ruby, 80 mL/gel (Invitrogen, USA) and imaged on Fuji FLA-5100 laser scanner.
# A mitochondrial preparation of NICES0808 sample was also analyzed for proteins and below, in Table 8, is the list of proteins the amount of which was modulated following treatment with CoQ10.
# [5] = rats, oral; cited from earlier work
# Ewing JDT cell line = assay: Protein expression in Ewing JDT cell line; type: cell-based
# [6] = test system: Ewing Sarcoma cell lines (JDT, 0808); assay: Combined antibody array, 2-D gel/MS and real time PCR microarray; type: cell-based; conditions: in response to CoQ10 treatment
# Excerpt: Functional groups were identified using “The Database for Annotation, Visualization and Integrated Discovery’ [DAVID] that subdivided the genes in 42 major clusters. Maximum number of genes from the list were segregated within the “Regulation of Cellular Process” and “Metabolic Process” functional groups with the other proteins spread over functional groups including regulation of transcription, programmed cell death, cell development, cytoskeleton, nucleus, proteosome and organ development.
# [7] = 24 hours with 50 or 100 μM Q10, relative to control media
substance,measurement,setting,value
Coenzyme Q10 [CoQ10],Apoptotic response of cancer vs control cell lines,[1],induction of apoptosis and cell death in the cancer cells only
same,Solubility in water,[2],insoluble in water
same,Caspase 3 protein level by Western blot,NCIES0808 cells; 24 hours of treatment with 100 μM Q10,marked downregulation
same,Angiotensin-converting enzyme (ACE) protein level by Western analysis,NCIES0808 cells; [7],downregulated
same,Caspase 3 protein level by Western analysis,NCIES0808 cells; [7],downregulated
same,GARS protein level by Western analysis,NCIES0808 cells; [7],downregulated
same,Matrix Metalloproteinase 6 protein level by Western analysis,NCIES0808 cells; [7],downregulated
same,Neurolysin protein level by Western analysis,NCIES0808 cells; [7],downregulated
same,Level of Coenzyme Q10 present in the mitochondria,[3]; addition of exogenous Q10,increase in a time and dose dependent manner
same,Form of CoQ10 present in the mitochondria,[3]; mitochondrial enriched preparations from treated cells,primarily in oxidized form
same,Proteins Modulated in NCIES0808 cells treated with CoQ10 (value = protein),[4]; gel spot 37,eukaryotic translation elongation factor 1 beta 2
same,Proteins Modulated in NCIES0808 cells treated with CoQ10 (value = protein),[4]; gel spot 108,retinoblastoma binding protein 4 isoform A
same,Proteins Modulated in NCIES0808 cells treated with CoQ10 (value = protein),[4]; gel spot 172,cytoplasmic dynein IC-2
same,Proteins Modulated in NCIES0808 cells treated with CoQ10 (value = protein),[4]; gel spot 227,"chaperonin containing TCP1, subunit 3"
same,Proteins Modulated in NCIES0808 cells treated with CoQ10 (value = protein),[4]; gel spot 1000,TAR DNA binding protein
same,Fraction of orally-administered CoQ10 absorbed,[5],2-3%
same,increase in Caspase 3 expression,"Ewing JDT cell line; 100 μM CoQ10, within one hour after exposure",30%
same,Caspase 3 expression,Ewing JDT cell line; one hour after CoQ10 treatment,significant increase
same,p53 expression,Ewing JDT cell line; one hour after treatment with CoQ10,significant increase
same,Number of gene products whose expression is significantly influenced,[6],over 90
same,Share of identified gene products down-regulated,[6],~40%
same,Share of identified gene products up-regulated,[6],approximately 60%
